Data from the supplement of paper PMC10307832.

Key:
Assay in all cases: relative viability (nuclei count vs DMSO), 5 days (fraction); higher = more cells survive
[1] = compound: Cc1ccc(Nc2nccc(N(C)c3ccc4c(C)n(C)nc4c3)n2)cc1S(N)(=O)=O [Pazopanib] + O=C(c1cc(Cc2n[nH]c(=O)c3ccccc23)ccc1F)N1CCN(C(=O)C2CC2)CC1 [Olaparib] (partner 8 µM)
How it was run: (§1)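 Values are medians from duplicate plates. Each reflects relative viability, defined as the nuclei count of treated wells over that of vehicle wells. Lung cancer cell lines in 1536-well plates were pin-tool dosed one day after seeding with one drug alone or with a fixed anchor-drug dose plus five library-drug doses (not always all listed) in √10 steps, then fixed, stained and imaged at 4× after 5 days.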

[2] = compound: Cc1ccc(Nc2nccc(N(C)c3ccc4c(C)n(C)nc4c3)n2)cc1S(N)(=O)=O [Pazopanib] + C[C@@H](Oc1cc(-c2cnn(C3CCNCC3)c2)cnc1N)c1c(Cl)ccc(F)c1Cl [Crizotinib] (partner 1 µM)
How it was run: as §1

[3] = compound: Cc1ccc(C(=O)Nc2ccc(CN3CCN(C)CC3)c(C(F)(F)F)c2)cc1C#Cc1cnc2cccnn12 [Ponatinib] + C[C@]1(O)C[C@@H](c2nc(-c3ccc4ccc(-c5ccccc5)nc4c3)c3c(N)nccn32)C1 [Linsitinib] (partner 1 µM)
How it was run: as §1

[4] = compound: Cc1ccc(Nc2nccc(N(C)c3ccc4c(C)n(C)nc4c3)n2)cc1S(N)(=O)=O [Pazopanib] + Nc1nc2[nH]cc(CCc3ccc(C(=O)N[C@@H](CCC(=O)O)C(=O)O)cc3)c2c(=O)[nH]1 [Pemetrexed] (partner 0.2 µM)
How it was run: as §1

| Cell Line | relative viability ([1]; first compound 0.01 µM) | relative viability ([1]; first compound 0.03162 µM) | relative viability ([1]; first compound 0.1 µM) | relative viability ([1]; first compound 0.3162 µM) | relative viability ([1]; first compound 1 µM) | relative viability ([2]; first compound 0.01 µM) | relative viability ([2]; first compound 0.03162 µM) | relative viability ([2]; first compound 0.1 µM) | relative viability ([2]; first compound 0.3162 µM) | relative viability ([2]; first compound 1 µM) | relative viability ([3]; first compound 0.002 µM) | relative viability ([3]; first compound 0.006325 µM) | relative viability ([3]; first compound 0.06325 µM) | relative viability ([3]; first compound 0.2 µM) | relative viability ([4]; first compound 0.01 µM) | relative viability ([4]; first compound 0.03162 µM) | relative viability ([4]; first compound 0.1 µM) | relative viability ([4]; first compound 0.3162 µM) | relative viability ([4]; first compound 1 µM) |
| --- | --- | --- | --- | --- | --- | --- | --- | --- | --- | --- | --- | --- | --- | --- | --- | --- | --- | --- | --- |
| NCI-H2347 | 0.541 | 0.609 | 0.538 | 0.575 | 0.558 | 0.885 | 0.643 | 0.662 | 0.691 | 0.842 | 0.913 | 0.918 | 1.05 | 0.974 | 0.444 | 0.421 | 0.429 | 0.426 | 0.386 |
| COR-L23 | 0.35 | 0.332 | 0.366 | 0.299 | 0.34 | 0.635 | 0.645 | 0.663 | 0.704 | 0.64 | 0.9 | 0.826 | 0.889 | 0.741 | 0.177 | 0.182 | 0.207 | 0.204 | 0.203 |
| NCI-H2087 | 0.72 | 0.7 | 0.745 | 0.549 | 0.568 | 0.952 | 0.76 | 1.01 | 0.812 | 0.701 | 0.632 | 0.761 | 0.761 | 0.893 | 0.61 | 0.65 | 0.637 | 0.59 | 0.657 |
| LC-2-ad | 0.796 | 0.684 | 0.705 | 0.778 | 0.682 | 0.483 | 0.462 | 0.467 | 0.423 | 0.467 | 0.802 | 0.728 | 0.644 | 0.555 | 0.292 | 0.281 | 0.274 | 0.311 | 0.275 |
| NCI-H1915 | 0.257 | 0.241 | 0.275 | 0.229 | 0.227 | 0.875 | 0.974 | 0.911 | 0.847 | 0.79 | 1.02 | 1.08 | 1.09 | 0.995 | 0.509 | 0.442 | 0.472 | 0.467 | 0.474 |
| NCI-H1944 | 0.425 | 0.353 | 0.424 | 0.418 | 0.475 | 1.13 | 1.11 | 1.05 | 1.04 | 1.05 | 1.14 | 1.29 | 1.41 | 1.22 | 0.562 | 0.635 | 0.67 | 0.724 | 0.603 |
| NCI-H2023 | 0.441 | 0.487 | 0.516 | 0.466 | 0.45 | 0.695 | 0.762 | 0.666 | 0.613 | 0.728 | 0.666 | 0.711 | 0.781 | 0.601 | 0.18 | 0.206 | 0.271 | 0.22 | 0.216 |
| COR-L 105 | 0.699 | 0.649 | 0.667 | 0.584 | 0.745 | 0.712 | 0.984 | 0.838 | 0.883 | 0.964 | 0.944 | 0.875 | 1.39 | 1.04 | 1.07 | 1.24 | 1.19 | 1.21 | 1.21 |
| SK-LU-1 | 0.392 | 0.483 | 0.441 | 0.525 | 0.55 | 0.952 | 1.02 | 1.14 | 0.976 | 0.852 | 0.943 | 1.19 | 1.18 | 0.997 | 0.926 | 1.01 | 1.05 | 0.994 | 0.911 |
| LXF-289 | 1.05 | 1.06 | 1.1 | 1.05 | 1.05 | 0.851 | 0.829 | 0.801 | 0.782 | 0.824 | 0.936 | 0.959 | 0.992 | 0.933 | 1.01 | 0.899 | 0.904 | 0.845 | 0.848 |
| PC-3 [JPC-3] | – | 1.15 | 1.18 | 1.11 | 1.02 | 1.03 | 1.01 | 1.02 | 0.925 | 0.936 | 0.981 | 0.984 | 0.992 | 0.956 | – | 0.993 | 0.957 | 1.06 | 1.15 |
| NCI-H661 | 0.781 | 0.782 | 0.792 | 0.691 | 0.71 | 1.13 | 0.976 | 1.03 | 0.998 | 0.987 | 0.54 | 0.598 | 0.692 | 0.565 | 0.863 | 0.938 | 0.969 | 0.955 | 0.861 |
| NCI-H1666 | 0.819 | 0.874 | 0.74 | 0.649 | 0.769 | 1.09 | 1 | 0.875 | 1.09 | 1.27 | 0.765 | 0.916 | 1.09 | 0.859 | 0.932 | 0.834 | 0.92 | 0.72 | 0.847 |
| NCI-H2085 | 0.821 | 0.759 | 0.796 | 0.704 | 0.713 | 0.952 | 0.968 | 0.911 | 0.919 | 0.935 | 0.831 | 0.831 | 1.09 | 0.741 | 0.816 | 1.09 | 0.804 | 0.949 | 1.03 |
| NCI-H1734 | 0.626 | 0.627 | 0.578 | 0.598 | 0.591 | 0.689 | 0.727 | 0.614 | 0.658 | 0.622 | 0.792 | 0.864 | 1 | 0.754 | 0.435 | 0.396 | 0.468 | 0.436 | 0.432 |
| NCI-H2126 | 0.825 | 0.908 | 0.988 | 0.946 | 0.887 | 0.935 | 1.09 | 1.03 | 0.96 | 1.03 | 0.735 | 0.703 | 0.793 | 0.809 | 0.662 | 0.703 | 0.68 | 0.693 | 0.721 |
| EMC-BAC-2 | – | 0.476 | 0.457 | 0.43 | 0.43 | 0.735 | 0.786 | 0.649 | 0.782 | 0.749 | 0.82 | 0.824 | 0.914 | 0.776 | – | 0.456 | 0.384 | 0.434 | 0.425 |
